# From paper PMC11233931, “Remodeling tumor‐associated macrophage for anti‐cancer effects by rational design of irreversible inhibition of mitogen‐activated protein kinase‐activated protein kinase 2” (MedComm, 2024)
# Tests used:
# Experiment in all cases: Eurofins kinase selectivity profile against 380 other human recombinant kinases (Table S2)
# Assay type in all cases: biochemical
# [1] = target: T1, 380 human recombinant protein kinases (Homo sapiens, UniProt Q13043); settings: MST1(h), read-out: Inhibition rate
# T1 construct: purchased Eurofins (Celle Lévescault)
# T1 sequence (Q13043 1-487): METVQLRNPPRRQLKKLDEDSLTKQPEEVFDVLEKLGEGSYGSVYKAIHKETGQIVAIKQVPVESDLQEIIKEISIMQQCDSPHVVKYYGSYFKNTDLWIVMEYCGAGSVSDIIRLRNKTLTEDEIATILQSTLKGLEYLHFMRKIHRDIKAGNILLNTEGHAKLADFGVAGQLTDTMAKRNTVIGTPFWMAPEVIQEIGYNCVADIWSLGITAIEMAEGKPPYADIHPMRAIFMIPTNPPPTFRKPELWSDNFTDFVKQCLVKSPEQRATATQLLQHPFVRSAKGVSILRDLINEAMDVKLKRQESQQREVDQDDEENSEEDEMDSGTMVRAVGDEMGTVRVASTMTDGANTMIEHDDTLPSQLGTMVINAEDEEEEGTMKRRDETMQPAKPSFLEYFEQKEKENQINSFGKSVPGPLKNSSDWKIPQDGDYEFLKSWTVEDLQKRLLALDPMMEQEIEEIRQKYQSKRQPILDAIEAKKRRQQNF
# Summary of the method: (§1)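 Values come from a contract kinase-profiling service that tested the compound at multiple concentrations across 380 recombinant human kinases, as an off-target check against the MK2 activity.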
# [2] = target: T2, 380 human recombinant protein kinases (Homo sapiens, UniProt P42336, E542K); settings: PI3 Kinase (p110α(E542K)/p85α)(h), read-out: Inhibition rate (%)
# T2 construct: purchased Eurofins (Celle Lévescault)
# Summary of the method: as §1
# [3] = target: T3, 380 human recombinant protein kinases (Homo sapiens, UniProt Q9P1W9); settings: Pim-2(h), read-out: Inhibition rate
# T3 construct: purchased Eurofins (Celle Lévescault)
# Summary of the method: as §1
# [4] = target: T4, 380 human recombinant protein kinases (Homo sapiens, UniProt Q9HAZ1); settings: CLK4(h), read-out: Inhibition rate
# T4 construct: purchased Eurofins (Celle Lévescault)
# Summary of the method: as §1
# [5] = target: T5, 380 human recombinant protein kinases (Homo sapiens, UniProt Q52WX2); settings: SBK1(h), read-out: Inhibition rate (%)
# T5 construct: purchased Eurofins (Celle Lévescault)
# Summary of the method: as §1
# [6] = target: T6, 380 human recombinant protein kinases (Homo sapiens, UniProt P50613); settings: CDK7/cyclinH/MAT1(h), read-out: Inhibition rate
# T6 construct: purchased Eurofins (Celle Lévescault)
# Summary of the method: as §1
# [7] = target: T7, 380 human recombinant protein kinases (Homo sapiens, UniProt P42685); settings: PTK5(h), read-out: Inhibition rate
# T7 construct: purchased Eurofins (Celle Lévescault)
# Summary of the method: as §1
# [8] = target: T8, 380 human recombinant protein kinases (Homo sapiens, UniProt Q9Y5S2); settings: MRCKβ(h), read-out: Inhibition rate
# T8 construct: purchased Eurofins (Celle Lévescault)
# Summary of the method: as §1
# [9] = target: T9, 380 human recombinant protein kinases (Homo sapiens, UniProt O15075); settings: DCAMKL1(h), read-out: Inhibition rate
# T9 construct: purchased Eurofins (Celle Lévescault)
# Summary of the method: as §1
# [10] = target: T10, 380 human recombinant protein kinases (Homo sapiens, UniProt P34947); settings: GRK5(h), read-out: Inhibition rate
# T10 construct: purchased Eurofins (Celle Lévescault)
# Summary of the method: as §1
# [11] = target: T11, 380 human recombinant protein kinases (Homo sapiens, UniProt Q9NYL2); settings: ZAK(h), read-out: Inhibition rate (%)
# T11 construct: purchased Eurofins (Celle Lévescault)
# Summary of the method: as §1
# [12] = target: T12, 380 human recombinant protein kinases (Homo sapiens, UniProt Q9P2K8); settings: GCN2(h), read-out: Inhibition rate
# T12 construct: purchased Eurofins (Celle Lévescault)
# Summary of the method: as §1
# [13] = target: T13, 380 human recombinant protein kinases (Homo sapiens, UniProt Q04759); settings: PKCθ(h), read-out: Inhibition rate
# T13 construct: purchased Eurofins (Celle Lévescault)
# Summary of the method: as §1
# [14] = target: T14, 380 human recombinant protein kinases (Homo sapiens, UniProt Q5VT25); settings: MRCKα(h), read-out: Inhibition rate
# T14 construct: purchased Eurofins (Celle Lévescault)
# Summary of the method: as §1
# [15] = target: T15, 380 human recombinant protein kinases (Homo sapiens, UniProt Q8TDX7); settings: NEK7(h), read-out: Inhibition rate
# T15 construct: purchased Eurofins (Celle Lévescault)
# Summary of the method: as §1
# [16] = target: T16, 380 human recombinant protein kinases (Homo sapiens, UniProt P49841); settings: GSK3β(h), read-out: Inhibition rate
# T16 construct: purchased Eurofins (Celle Lévescault)
# Summary of the method: as §1
# [17] = target: T17, 380 human recombinant protein kinases (Homo sapiens, UniProt Q8TDR2); settings: CLIK1(h), read-out: Inhibition rate
# T17 construct: purchased Eurofins (Celle Lévescault)
# Summary of the method: as §1
# T9 sequence (O15075 whole entry): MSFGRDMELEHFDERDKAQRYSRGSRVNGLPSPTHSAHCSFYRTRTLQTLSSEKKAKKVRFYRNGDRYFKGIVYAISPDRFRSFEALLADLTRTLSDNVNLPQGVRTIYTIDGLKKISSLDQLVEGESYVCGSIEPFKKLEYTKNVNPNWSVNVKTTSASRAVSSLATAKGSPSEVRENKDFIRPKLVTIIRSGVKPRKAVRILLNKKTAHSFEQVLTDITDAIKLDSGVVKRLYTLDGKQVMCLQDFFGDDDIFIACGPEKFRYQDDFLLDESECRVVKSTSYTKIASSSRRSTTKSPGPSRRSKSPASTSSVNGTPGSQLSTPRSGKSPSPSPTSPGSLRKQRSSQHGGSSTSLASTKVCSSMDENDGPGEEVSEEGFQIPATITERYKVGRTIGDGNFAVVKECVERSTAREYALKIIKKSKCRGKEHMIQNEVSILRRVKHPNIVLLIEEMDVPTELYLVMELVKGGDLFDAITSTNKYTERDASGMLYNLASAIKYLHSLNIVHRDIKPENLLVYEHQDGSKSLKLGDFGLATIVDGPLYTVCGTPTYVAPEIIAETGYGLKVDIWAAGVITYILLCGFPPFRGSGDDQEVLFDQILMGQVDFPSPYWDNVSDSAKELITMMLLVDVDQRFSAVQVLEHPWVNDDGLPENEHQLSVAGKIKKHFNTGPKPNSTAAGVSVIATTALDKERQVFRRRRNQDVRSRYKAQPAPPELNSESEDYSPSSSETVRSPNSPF
# T15 sequence (Q8TDX7 whole entry): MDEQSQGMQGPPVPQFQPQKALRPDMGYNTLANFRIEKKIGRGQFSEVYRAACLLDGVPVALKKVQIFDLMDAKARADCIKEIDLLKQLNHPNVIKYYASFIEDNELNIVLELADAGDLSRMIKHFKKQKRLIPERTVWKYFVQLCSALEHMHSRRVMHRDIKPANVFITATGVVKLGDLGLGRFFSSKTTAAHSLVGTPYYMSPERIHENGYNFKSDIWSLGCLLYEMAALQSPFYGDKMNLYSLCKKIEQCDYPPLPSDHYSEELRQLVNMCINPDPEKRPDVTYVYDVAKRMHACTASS
# T6 sequence (P50613 whole entry): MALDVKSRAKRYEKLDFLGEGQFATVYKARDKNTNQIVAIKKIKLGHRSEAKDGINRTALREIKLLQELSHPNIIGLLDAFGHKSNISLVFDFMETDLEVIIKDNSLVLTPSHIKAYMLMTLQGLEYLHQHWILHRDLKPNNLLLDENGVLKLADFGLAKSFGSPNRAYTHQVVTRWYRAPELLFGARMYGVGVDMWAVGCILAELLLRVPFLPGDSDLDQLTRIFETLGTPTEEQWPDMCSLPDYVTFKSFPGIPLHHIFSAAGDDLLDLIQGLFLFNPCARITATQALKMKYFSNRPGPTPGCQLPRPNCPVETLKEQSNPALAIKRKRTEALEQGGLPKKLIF
# T10 sequence (P34947 whole entry): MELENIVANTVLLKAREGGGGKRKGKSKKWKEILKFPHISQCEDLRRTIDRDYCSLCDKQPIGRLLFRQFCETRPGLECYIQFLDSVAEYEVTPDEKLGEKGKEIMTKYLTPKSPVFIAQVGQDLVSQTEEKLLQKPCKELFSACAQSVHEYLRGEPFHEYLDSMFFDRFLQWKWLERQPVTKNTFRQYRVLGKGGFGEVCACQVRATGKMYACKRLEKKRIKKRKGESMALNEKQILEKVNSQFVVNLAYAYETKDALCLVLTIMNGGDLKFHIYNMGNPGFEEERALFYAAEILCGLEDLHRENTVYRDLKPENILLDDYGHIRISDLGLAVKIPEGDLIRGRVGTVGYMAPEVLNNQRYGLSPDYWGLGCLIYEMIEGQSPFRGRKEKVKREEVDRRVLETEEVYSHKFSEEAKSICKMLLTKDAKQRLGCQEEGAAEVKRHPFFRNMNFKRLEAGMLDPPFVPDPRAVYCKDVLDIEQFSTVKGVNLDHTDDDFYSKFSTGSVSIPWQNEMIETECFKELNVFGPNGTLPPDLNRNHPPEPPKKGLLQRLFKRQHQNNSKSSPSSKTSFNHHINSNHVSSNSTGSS
# T7 sequence (P42685 whole entry): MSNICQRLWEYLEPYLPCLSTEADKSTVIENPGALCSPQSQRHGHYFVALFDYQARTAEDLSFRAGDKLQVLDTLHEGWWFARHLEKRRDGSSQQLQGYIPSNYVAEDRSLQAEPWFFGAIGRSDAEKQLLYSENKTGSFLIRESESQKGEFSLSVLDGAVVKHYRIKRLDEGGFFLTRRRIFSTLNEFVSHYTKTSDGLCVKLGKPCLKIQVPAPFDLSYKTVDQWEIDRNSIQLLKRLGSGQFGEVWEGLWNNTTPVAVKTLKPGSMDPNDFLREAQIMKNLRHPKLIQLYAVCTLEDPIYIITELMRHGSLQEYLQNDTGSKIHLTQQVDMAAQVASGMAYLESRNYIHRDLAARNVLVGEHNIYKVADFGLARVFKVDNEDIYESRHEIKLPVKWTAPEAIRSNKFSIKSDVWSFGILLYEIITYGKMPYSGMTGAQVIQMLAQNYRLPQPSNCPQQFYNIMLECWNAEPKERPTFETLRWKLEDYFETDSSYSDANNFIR
# T3 sequence (Q9P1W9 whole entry): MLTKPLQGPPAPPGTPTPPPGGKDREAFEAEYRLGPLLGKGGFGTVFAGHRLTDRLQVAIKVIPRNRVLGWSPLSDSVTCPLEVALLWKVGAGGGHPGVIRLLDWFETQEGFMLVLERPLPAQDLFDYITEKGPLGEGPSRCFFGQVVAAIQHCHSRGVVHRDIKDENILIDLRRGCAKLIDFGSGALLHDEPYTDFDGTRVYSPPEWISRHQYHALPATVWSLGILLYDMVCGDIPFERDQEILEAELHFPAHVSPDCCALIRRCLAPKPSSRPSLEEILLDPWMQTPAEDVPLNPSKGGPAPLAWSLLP
# T14 sequence (Q5VT25 whole entry): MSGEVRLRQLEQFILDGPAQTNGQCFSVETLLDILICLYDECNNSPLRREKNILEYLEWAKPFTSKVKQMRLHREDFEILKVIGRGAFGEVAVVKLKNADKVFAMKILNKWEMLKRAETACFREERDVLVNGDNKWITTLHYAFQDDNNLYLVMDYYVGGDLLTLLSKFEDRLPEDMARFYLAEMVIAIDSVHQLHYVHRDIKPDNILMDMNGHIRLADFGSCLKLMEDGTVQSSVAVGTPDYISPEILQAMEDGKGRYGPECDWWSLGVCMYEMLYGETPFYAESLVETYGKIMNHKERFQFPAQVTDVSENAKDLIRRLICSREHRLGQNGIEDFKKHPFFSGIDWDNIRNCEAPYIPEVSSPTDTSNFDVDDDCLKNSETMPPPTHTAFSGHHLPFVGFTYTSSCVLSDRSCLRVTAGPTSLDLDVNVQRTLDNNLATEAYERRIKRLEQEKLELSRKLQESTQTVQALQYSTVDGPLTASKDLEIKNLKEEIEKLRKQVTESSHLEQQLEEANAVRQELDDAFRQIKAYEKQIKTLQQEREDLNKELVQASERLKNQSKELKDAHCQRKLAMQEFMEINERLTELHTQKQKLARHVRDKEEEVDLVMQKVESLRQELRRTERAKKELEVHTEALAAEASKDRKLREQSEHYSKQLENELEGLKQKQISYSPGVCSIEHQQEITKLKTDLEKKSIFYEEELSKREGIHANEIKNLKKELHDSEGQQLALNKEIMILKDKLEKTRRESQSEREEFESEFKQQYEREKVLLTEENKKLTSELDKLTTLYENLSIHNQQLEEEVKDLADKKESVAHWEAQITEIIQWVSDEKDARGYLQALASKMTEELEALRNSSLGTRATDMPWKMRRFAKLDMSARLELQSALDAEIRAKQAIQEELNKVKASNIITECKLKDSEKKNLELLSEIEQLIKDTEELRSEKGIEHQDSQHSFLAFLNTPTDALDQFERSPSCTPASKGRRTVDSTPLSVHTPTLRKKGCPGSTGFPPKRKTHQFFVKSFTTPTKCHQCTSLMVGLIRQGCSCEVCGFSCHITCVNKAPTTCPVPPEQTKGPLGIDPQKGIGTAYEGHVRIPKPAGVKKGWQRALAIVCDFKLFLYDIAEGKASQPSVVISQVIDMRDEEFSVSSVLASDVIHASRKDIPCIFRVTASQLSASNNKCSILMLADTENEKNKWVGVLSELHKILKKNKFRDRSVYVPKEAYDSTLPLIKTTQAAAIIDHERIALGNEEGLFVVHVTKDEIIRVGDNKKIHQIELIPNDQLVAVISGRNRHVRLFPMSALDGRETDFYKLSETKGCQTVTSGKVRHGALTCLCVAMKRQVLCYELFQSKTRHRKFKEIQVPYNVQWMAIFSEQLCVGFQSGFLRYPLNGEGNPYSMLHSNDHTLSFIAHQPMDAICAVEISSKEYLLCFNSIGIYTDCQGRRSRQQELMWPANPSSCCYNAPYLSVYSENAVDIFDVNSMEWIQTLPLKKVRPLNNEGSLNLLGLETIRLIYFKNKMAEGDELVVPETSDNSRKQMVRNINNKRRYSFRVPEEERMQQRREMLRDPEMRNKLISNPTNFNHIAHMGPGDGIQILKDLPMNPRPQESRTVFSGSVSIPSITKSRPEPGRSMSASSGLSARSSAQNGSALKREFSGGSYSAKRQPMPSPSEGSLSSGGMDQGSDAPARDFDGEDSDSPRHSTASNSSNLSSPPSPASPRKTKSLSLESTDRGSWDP
# T4 sequence (Q9HAZ1 whole entry): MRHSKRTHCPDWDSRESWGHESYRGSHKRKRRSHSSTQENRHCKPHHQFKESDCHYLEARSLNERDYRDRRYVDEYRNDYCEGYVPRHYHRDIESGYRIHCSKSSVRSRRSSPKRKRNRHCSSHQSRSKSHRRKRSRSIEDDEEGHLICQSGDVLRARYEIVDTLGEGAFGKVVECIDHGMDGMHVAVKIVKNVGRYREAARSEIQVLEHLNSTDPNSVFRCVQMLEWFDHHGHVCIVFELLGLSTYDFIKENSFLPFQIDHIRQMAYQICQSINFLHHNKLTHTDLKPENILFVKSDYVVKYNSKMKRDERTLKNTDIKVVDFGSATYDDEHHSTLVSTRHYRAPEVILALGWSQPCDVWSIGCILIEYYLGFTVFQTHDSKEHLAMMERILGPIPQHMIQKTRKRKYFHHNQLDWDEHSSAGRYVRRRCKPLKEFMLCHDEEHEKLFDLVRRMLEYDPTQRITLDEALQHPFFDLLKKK
smiles,measurement,setting,value
C=CC(=O)Nc1cc(-c2cc(-c3cc4c([nH]3)CCNC4=O)ccn2)ccc1OC(F)(F)F [compound 11],inhibition at 0.01 µM,[1]; 10 nM,-1%
same,inhibition at 0.1 µM,[1]; 100 nM,-9%
same,inhibition at 1 µM,[1]; 1000 nM,0%
same,inhibition at 0.01 µM,[2]; 10 nM,-3%
same,inhibition at 0.1 µM,[2]; 100 nM,-2%
same,inhibition at 1 µM,[2]; 1000 nM,-2%
same,inhibition at 0.01 µM,[3]; 10 nM,-3%
same,inhibition at 0.1 µM,[3]; 100 nM,5%
same,inhibition at 1 µM,[3]; 1000 nM,6%
same,inhibition at 0.01 µM,[4]; 10 nM,-6%
same,inhibition at 0.1 µM,[4]; 100 nM,25%
same,inhibition at 1 µM,[4]; 1000 nM,76%
same,inhibition at 0.01 µM,[5]; 10 nM,-1%
same,inhibition at 0.1 µM,[5]; 100 nM,-8%
same,inhibition at 1 µM,[5]; 1000 nM,3%
same,inhibition at 0.01 µM,[6]; 10 nM,5%
same,inhibition at 0.1 µM,[6]; 100 nM,-1%
same,inhibition at 1 µM,[6]; 1000 nM,-2%
same,inhibition at 0.01 µM,[7]; 10 nM,-7%
same,inhibition at 0.1 µM,[7]; 100 nM,6%
same,inhibition at 1 µM,[7]; 1000 nM,5%
same,inhibition at 0.01 µM,[8]; 10 nM,8%
same,inhibition at 0.1 µM,[8]; 100 nM,0%
same,inhibition at 1 µM,[8]; 1000 nM,10%
same,inhibition at 0.01 µM,[9]; 10 nM,3%
same,inhibition at 0.1 µM,[9]; 100 nM,-1%
same,inhibition at 1 µM,[9]; 1000 nM,-1%
same,inhibition at 0.01 µM,[10]; 10 nM,-6%
same,inhibition at 0.1 µM,[10]; 100 nM,-2%
same,inhibition at 1 µM,[10]; 1000 nM,0%
same,inhibition at 0.01 µM,[11]; 10 nM,-3%
same,inhibition at 0.1 µM,[11]; 100 nM,-1%
same,inhibition at 1 µM,[11]; 1000 nM,1%
same,inhibition at 0.01 µM,[12]; 10 nM,7%
same,inhibition at 0.1 µM,[12]; 100 nM,9%
same,inhibition at 1 µM,[12]; 1000 nM,5%
same,inhibition at 0.01 µM,[13]; 10 nM,6%
same,inhibition at 0.1 µM,[13]; 100 nM,0%
same,inhibition at 1 µM,[13]; 1000 nM,4%
same,inhibition at 0.01 µM,[14]; 10 nM,-5%
same,inhibition at 0.1 µM,[14]; 100 nM,-3%
same,inhibition at 1 µM,[14]; 1000 nM,-3%
same,inhibition at 0.01 µM,[15]; 10 nM,-5%
same,inhibition at 0.1 µM,[15]; 100 nM,-2%
same,inhibition at 1 µM,[15]; 1000 nM,3%
same,inhibition at 0.01 µM,[16]; 10 nM,-10%
same,inhibition at 0.1 µM,[16]; 100 nM,-7%
same,inhibition at 1 µM,[16]; 1000 nM,5%
same,inhibition at 0.01 µM,[17]; 10 nM,5%
same,inhibition at 0.1 µM,[17]; 100 nM,33%
same,inhibition at 1 µM,[17]; 1000 nM,65%
